Experimental data from article PMC9851200, “Multiparameter phenotypic screening for endogenous TFEB and TFE3 translocation identifies novel chemical series modulating lysosome function” (Autophagy, 2022).

Experiments:
Assay type in all cases: binding
[1] = molecular target: kinases (KINOMEscan panel) (Homo sapiens, UniProt Q99755); conditions: NEW KINOMEscan
[2] = molecular target: kinases (KINOMEscan panel) (Homo sapiens, UniProt Q86V86); conditions: kinase PIM3; NEW KINOMEscan
[3] = molecular target: T1, kinases (KINOMEscan panel) (Homo sapiens, UniProt O14757); conditions: CHEK1; NEW KINOMEscan
T1 sequence (O14757 1-476): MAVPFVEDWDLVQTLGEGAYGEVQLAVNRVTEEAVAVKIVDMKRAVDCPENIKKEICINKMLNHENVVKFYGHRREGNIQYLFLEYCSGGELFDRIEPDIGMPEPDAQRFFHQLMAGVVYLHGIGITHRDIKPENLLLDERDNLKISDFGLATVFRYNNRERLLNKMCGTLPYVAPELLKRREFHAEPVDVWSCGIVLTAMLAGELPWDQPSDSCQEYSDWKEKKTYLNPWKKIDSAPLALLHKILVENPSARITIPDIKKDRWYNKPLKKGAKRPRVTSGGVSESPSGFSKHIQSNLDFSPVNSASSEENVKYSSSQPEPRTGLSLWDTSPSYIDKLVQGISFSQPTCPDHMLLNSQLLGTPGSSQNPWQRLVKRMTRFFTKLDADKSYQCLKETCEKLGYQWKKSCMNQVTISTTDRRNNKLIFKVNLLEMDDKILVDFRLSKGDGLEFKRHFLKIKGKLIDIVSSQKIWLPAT

[4] = molecular target: T2, kinases (KINOMEscan panel) (Homo sapiens, UniProt O14936); conditions: kinase CASK; NEW KINOMEscan
T2 sequence (O14936 1-926): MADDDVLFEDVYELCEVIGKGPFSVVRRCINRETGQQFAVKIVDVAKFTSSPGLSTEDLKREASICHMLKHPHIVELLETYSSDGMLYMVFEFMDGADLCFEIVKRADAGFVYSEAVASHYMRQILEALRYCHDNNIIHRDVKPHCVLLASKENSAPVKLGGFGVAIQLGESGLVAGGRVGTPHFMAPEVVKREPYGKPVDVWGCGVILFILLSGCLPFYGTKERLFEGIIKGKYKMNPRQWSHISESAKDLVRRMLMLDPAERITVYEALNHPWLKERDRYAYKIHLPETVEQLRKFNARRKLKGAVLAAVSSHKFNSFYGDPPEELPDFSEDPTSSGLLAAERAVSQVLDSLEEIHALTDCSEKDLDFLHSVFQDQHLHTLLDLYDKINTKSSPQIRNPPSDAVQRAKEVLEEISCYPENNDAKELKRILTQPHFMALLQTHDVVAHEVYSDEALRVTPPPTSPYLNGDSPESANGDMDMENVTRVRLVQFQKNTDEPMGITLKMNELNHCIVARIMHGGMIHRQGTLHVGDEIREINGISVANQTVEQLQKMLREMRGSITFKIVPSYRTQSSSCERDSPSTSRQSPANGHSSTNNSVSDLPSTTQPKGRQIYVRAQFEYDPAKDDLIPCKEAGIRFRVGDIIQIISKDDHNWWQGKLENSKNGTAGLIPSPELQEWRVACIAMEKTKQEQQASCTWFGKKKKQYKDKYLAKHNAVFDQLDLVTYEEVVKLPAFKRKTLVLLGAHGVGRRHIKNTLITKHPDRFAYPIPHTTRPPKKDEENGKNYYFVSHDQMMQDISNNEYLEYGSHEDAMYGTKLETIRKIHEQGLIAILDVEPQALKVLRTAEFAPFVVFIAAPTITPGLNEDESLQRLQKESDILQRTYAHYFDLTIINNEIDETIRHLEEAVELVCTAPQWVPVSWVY

[5] = molecular target: T3, kinases (KINOMEscan panel) (Homo sapiens, UniProt Q06418); conditions: NEW KINOMEscan
T3 sequence (Q06418 41-890): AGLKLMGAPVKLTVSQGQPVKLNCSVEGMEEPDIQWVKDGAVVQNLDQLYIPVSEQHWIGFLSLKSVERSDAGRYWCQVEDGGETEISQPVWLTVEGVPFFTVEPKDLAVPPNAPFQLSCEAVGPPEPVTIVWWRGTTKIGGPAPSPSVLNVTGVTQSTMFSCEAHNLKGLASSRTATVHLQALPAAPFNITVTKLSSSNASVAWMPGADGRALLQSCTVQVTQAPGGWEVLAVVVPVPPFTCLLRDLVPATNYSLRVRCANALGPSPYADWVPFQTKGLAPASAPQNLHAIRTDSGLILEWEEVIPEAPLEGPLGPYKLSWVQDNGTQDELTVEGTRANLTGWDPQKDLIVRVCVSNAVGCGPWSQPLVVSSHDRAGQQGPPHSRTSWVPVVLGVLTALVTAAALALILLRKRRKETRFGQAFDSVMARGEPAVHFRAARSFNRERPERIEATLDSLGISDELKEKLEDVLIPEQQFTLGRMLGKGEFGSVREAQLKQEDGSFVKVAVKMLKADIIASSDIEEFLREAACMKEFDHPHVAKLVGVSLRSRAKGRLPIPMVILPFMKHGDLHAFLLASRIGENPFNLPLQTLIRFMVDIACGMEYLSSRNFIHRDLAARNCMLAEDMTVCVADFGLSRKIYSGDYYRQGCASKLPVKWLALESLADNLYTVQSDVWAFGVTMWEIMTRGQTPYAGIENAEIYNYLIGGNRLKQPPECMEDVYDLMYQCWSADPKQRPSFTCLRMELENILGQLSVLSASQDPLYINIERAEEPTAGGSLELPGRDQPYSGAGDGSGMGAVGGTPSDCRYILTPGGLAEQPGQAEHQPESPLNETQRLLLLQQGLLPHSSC

Sequence of kinases (KINOMEscan panel) (Homo sapiens, UniProt Q99755) (Q99755 whole entry): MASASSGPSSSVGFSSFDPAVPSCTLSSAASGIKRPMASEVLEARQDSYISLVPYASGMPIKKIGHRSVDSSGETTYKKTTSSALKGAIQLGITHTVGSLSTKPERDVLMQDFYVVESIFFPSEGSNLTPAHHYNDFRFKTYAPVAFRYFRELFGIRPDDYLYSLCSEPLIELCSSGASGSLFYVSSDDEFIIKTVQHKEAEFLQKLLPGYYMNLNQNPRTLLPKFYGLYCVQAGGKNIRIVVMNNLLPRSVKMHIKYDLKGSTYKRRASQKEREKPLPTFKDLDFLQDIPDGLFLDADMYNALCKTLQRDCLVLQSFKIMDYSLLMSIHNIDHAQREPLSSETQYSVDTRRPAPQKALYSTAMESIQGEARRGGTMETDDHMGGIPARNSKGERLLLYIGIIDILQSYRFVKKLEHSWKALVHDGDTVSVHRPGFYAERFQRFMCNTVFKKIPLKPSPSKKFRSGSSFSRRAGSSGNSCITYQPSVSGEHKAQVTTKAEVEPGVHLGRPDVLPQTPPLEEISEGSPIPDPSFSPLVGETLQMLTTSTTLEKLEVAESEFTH

Row | Compound | KINOMEscan PIP5K1A [1] | KINOMEscan PIM3 [2] | KINOMEscan CHEK1 [3] | KINOMEscan CASK [4] | KINOMEscan TYRO3 [5]
1 | Cc1cccc(-c2nc(N(C)c3ccc4ncsc4c3)c3ccccc3n2)n1 [NK-161] | 52 | 0 | 3 | 0 | 21
2 | Cc1cccc(-c2nc(Nc3ccc4nn(C)cc4c3)c3ccccc3n2)n1 [NK167] | 49 | 0 | 2 | 0 | 4
